In patent publication US20220009914A1, “Analogs of Nitrofuran Antibiotics to Combat Resistance” (The Trustees of Indiana University, priority 2020, published 2022):
Like-named read-outs stand apart in the source and are kept apart here.

Legend:
[1] = system: B. subtilis; settings: previously found; read-out: EC50 proliferation of B. subtilis; cited from earlier work
[2] = system: Klebsiella pneumoniae strain NCTC 9633 (ATCC #13883); settings: previously found; read-out: EC50 proliferation of K. pneumoniae; cited from earlier work
[3] = system: methicillin-resistant S. aureus; settings: previously found; read-out: EC50 proliferation of methicillin-resistant S. aureus; cited from earlier work
[4] = molecular target: T1, E. coli GroEL/ES (Escherichia coli, UniProt P0A6F5); settings: read-out: IC50 GroEL/ES-mediated refolding of denatured malate dehydrogenase; previously found; cited from earlier work
T1 construct: made in house; host or cells: GroEL in NEB 5-alpha E. coli; GroES in E. coli BL21 (DE3)

[5] = system: SM101 E. coli; settings: previously found; read-out: EC50 proliferation of SM101 E. coli; cited from earlier work
[6] = molecular target: T1, E. coli GroEL/ES; settings: read-out: IC50 GroEL/ES-mediated refolding of denatured rhodanese; previously found; cited from earlier work
[7] = system: Acinetobacter baumannii strain 2208 (ATCC 19606); settings: previously found; read-out: EC50 proliferation of A. baumannii; cited from earlier work
[8] = system: compound 17 resistant E. coli
[9] = system: nifuroxazide resistant E. coli; format: cell-based, Escherichia coli

T1 sequence (P0A6F5 2-548): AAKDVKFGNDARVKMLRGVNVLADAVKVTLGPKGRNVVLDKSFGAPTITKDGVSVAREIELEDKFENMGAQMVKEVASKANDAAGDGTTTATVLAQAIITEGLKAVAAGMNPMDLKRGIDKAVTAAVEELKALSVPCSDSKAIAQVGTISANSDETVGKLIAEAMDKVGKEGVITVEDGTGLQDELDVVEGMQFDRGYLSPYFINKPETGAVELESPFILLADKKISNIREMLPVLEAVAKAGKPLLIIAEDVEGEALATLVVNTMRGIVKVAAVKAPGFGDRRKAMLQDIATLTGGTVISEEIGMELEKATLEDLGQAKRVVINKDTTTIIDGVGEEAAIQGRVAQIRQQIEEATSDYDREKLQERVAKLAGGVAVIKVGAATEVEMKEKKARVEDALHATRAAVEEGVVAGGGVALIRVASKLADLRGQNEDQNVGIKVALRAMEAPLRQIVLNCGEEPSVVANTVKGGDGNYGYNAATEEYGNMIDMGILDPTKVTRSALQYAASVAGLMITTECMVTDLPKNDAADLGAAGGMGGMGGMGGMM

COc1ccc(C(=O)N/N=C/c2ccc(O)c3ncccc23)cc1 [Compound 1, N′-((8-hydroxyquinolin-5-yl)methylene)-4-methoxybenzohydrazide]
EC50 [1]: 83 µM | EC50 [2]: 95 µM | EC50 [3]: 56 µM | IC50 [4]: 31 µM | EC50 [5]: 19 µM | IC50 [6]: 18 µM | EC50 [7]: 32 µM

O=C1CN(/N=C/c2ccc([N+](=O)[O-])o2)C(=O)N1 [Nitrofurantoin, reference compound]
17-resistant strains susceptible to the other inhibitor [8]: not | response of nifuroxazide-resistant strains to the other inhibitor [9]: cross-resistant

O=C(N/N=C/c1ccc([N+](=O)[O-])o1)c1ccc(O)cc1 [Nifuroxazide, reference compound]
17-resistant strains susceptible to the other inhibitor [8]: susceptible

O=C(N/N=C/c1ccc([N+](=O)[O-])o1)c1ccc(Cl)s1 [Compound 17, 5-chloro-N′-((5-nitrofuran-2-yl)methylene)thiophene-2-carbohydrazide]
response of nifuroxazide-resistant strains to the other inhibitor [9]: cross-resistant
